The source of these data is patent US20250353891A1 (MEDIMMUNE LIMITED, priority 2022, published 2025).

Starred links: 1 amine or outer side, 2 acyl side, 3 side chain; linkers in the order of their positions; H or OH if unused. Non-standard residues stand in square brackets, D forms with d. Residues, ends and D or L forms follow the SMILES beside them. Groups on a side chain read outwards from the residue. *: point of attachment. C20 diacid = O=C(O)CCCCCCCCCCCCCCCCCCC(=O)*; C18 diacid = O=C(O)CCCCCCCCCCCCCCCCC(=O)*; γGlu = O=C(O)[C@H](CCC(=O)[*:2])N[*:1]; αMeF = C[C@](N)(Cc1ccccc1)C(=O)O; AEEA = NCCOCCOCC(=O)O; Aib = CC(C)(N)C(=O)O

Test [1] has as its target human GLP-1 receptor (hGLP-1R) (Homo sapiens, UniProt P43220). As to the kind of experiment: cAMP production (HTRF) in CHO cells expressing hGLP-1R. Type of test: cell-based. Further details: expressed in transfected cells. The note with it: for EC50: Table 7, peptides modified at position 20, cAMP in CHO hGLP-1R cells, geometric mean, read-out: hGLP-1R EC50; for % Relative Potency Ratio: Table 7, % GLP-1R activity relative to GLP-1 / % GlucR activity relative to glucagon. In a few lines: (§1)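 Cells were resuspended in assay buffer at batch-optimized density, typically 1×10^5 cells/mL for hGLP-1R and 2×10^5 cells/mL for hGCGR. After 30 min incubation at room temperature with compound, cAMP was measured by two-step HTRF. EC50 values came from 4-parameter logistic fits of % Delta F.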

Test [2] addresses human glucagon receptor (hGCGR) (Homo sapiens, UniProt P47871). Description: cAMP production (HTRF) in CHO cells expressing hGCGR. It counts as cell-based. More on the design: expressed in transfected cells. Particulars: Table 7, peptides modified at position 20; cAMP in CHO hGCGR cells; geometric mean; read-out: hGluc-R EC50. In a few lines: as §1
In general terms: cAMP levels reflect the balance of adenylyl cyclase and phosphodiesterase activity.

Sequence of human glucagon receptor (hGCGR) (P47871 26-477): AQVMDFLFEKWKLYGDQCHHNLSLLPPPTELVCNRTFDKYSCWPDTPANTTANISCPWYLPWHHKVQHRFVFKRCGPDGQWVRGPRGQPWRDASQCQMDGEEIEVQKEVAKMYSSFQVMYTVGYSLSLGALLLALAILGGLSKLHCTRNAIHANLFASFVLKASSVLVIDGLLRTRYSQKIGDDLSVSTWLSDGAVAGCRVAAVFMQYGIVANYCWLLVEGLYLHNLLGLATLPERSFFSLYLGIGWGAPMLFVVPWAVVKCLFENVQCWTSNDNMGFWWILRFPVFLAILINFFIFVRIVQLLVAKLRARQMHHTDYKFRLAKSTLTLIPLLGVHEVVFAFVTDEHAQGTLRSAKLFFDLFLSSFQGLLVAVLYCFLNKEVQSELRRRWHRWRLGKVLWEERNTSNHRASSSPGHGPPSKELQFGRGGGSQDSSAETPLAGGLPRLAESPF
Sequence of human GLP-1 receptor (hGLP-1R) (P43220 24-463): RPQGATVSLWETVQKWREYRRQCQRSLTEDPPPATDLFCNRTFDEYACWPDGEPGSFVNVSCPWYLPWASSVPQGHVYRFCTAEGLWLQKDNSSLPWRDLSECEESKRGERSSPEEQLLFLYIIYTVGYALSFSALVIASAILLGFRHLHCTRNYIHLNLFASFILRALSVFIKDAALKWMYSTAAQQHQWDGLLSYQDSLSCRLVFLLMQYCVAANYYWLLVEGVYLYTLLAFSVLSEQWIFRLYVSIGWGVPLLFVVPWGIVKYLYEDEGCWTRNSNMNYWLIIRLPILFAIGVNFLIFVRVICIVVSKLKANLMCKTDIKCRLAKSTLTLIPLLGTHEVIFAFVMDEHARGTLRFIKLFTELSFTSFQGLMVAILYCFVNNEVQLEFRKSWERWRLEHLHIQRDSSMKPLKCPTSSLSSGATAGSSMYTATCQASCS

Broadly, the EC50 is the midpoint of the concentration-response curve. Consider `CC[C@H](C)[C@H](NC(=O)C(C)(C)NC(=O)[C@H](CCC(N)=O)NC(=O)[C@@H](NC(=O)[C@](C)(Cc1ccccc1)NC(=O)[C@H](CC(=O)O)NC(=O)[C@H](CCCCNC(=O)COCCOCCNC(=O)COCCOCCNC(=O)CCCCCCCCCCCCCCCCCCC(=O)O)NC(=O)[C@H](C)NC(=O)[C@H](C)NC(=O)[C@H](CCCNC(=N)N)NC(=O)[C@H](CO)NC(=O)[C@H](CC(=O)O)NC(=O)[C@H](CC(C)C)NC(=O)[C@](C)(Cc1ccccc1)NC(=O)[C@H](CCCCN)NC(=O)[C@H](CO)NC(=O)[C@@H](NC(=O)[C@H](CC(=O)O)NC(=O)[C@H](CO)NC(=O)[C@@H](NC(=O)[C@](C)(Cc1ccccc1)NC(=O)[C@H](CO)NC(=O)CNC(=O)[C@H](Cc1c[nH]cn1)NC(=O)C(C)(C)NC(=O)[C@@H](N)Cc1c[nH]cn1)[C@@H](C)O)C(C)C)C(C)C)C(=O)N[C@@H](C)C(=O)N[C@@H](CC(N)=O)C(=O)N[C@H](C(N)=O)[C@@H](C)O` [Peptide 277] (H-H[Aib]HGS[αMeF]TSDVSK[αMeF]LDSRAAK([AEEA-AEEA-C20 diacid])D[αMeF]VQ[Aib]IANT-NH2), for which, in test [1], the EC50 was 0.0495 nM and the “% Relative Potency Ratio” value is 2.3. Moreover, the concentration giving a half-maximal response (EC50) in test [2] came to 0.0573 nM.

For the molecule `CC[C@H](C)[C@H](NC(=O)C(C)(C)NC(=O)[C@H](CCC(N)=O)NC(=O)[C@@H](NC(=O)[C@](C)(Cc1ccccc1)NC(=O)[C@H](CC(=O)O)NC(=O)[C@H](CCCCNC(=O)COCCOCCNC(=O)CCCCCCCCCCCCCCCCCCC(=O)O)NC(=O)[C@H](C)NC(=O)[C@H](C)NC(=O)[C@H](CCCNC(=N)N)NC(=O)[C@H](CO)NC(=O)[C@H](CC(=O)O)NC(=O)[C@H](CC(C)C)NC(=O)[C@](C)(Cc1ccccc1)NC(=O)[C@H](CCCCN)NC(=O)[C@H](CO)NC(=O)[C@@H](NC(=O)[C@H](CC(=O)O)NC(=O)[C@H](CO)NC(=O)[C@@H](NC(=O)[C@](C)(Cc1ccccc1)NC(=O)[C@H](CO)NC(=O)CNC(=O)[C@H](Cc1c[nH]cn1)NC(=O)C(C)(C)NC(=O)[C@@H](N)Cc1c[nH]cn1)[C@@H](C)O)C(C)C)C(C)C)C(=O)N[C@@H](C)C(=O)N[C@@H](CC(N)=O)C(=O)N[C@H](C(N)=O)[C@@H](C)O` [Peptide 278] (H-H[Aib]HGS[αMeF]TSDVSK[αMeF]LDSRAAK([AEEA-C20 diacid])D[αMeF]VQ[Aib]IANT-NH2), the concentration giving a half-maximal response (EC50) in test [1] amounted to 0.0789 nM; in test [2] it was 0.0835 nM. Besides, in test [1], the “% Relative Potency Ratio” value was 2.1.

Take `CC[C@H](C)[C@H](NC(=O)C(C)(C)NC(=O)[C@H](CCC(N)=O)NC(=O)[C@@H](NC(=O)[C@](C)(Cc1ccccc1)NC(=O)[C@H](CC(=O)O)NC(=O)[C@H](CCCCNC(=O)COCCOCCNC(=O)CC[C@H](NC(=O)CC[C@H](NC(=O)CCCCCCCCCCCCCCCCCCC(=O)O)C(=O)O)C(=O)O)NC(=O)[C@H](C)NC(=O)[C@H](C)NC(=O)[C@H](CCCNC(=N)N)NC(=O)[C@H](CO)NC(=O)[C@H](CC(=O)O)NC(=O)[C@H](CC(C)C)NC(=O)[C@](C)(Cc1ccccc1)NC(=O)[C@H](CCCCN)NC(=O)[C@H](CO)NC(=O)[C@@H](NC(=O)[C@H](CC(=O)O)NC(=O)[C@H](CO)NC(=O)[C@@H](NC(=O)[C@](C)(Cc1ccccc1)NC(=O)[C@H](CO)NC(=O)CNC(=O)[C@H](Cc1c[nH]cn1)NC(=O)C(C)(C)NC(=O)[C@@H](N)Cc1c[nH]cn1)[C@@H](C)O)C(C)C)C(C)C)C(=O)N[C@@H](C)C(=O)N[C@@H](CC(N)=O)C(=O)N[C@H](C(N)=O)[C@@H](C)O` [Peptide 279] (H-H[Aib]HGS[αMeF]TSDVSK[αMeF]LDSRAAK([AEEA-γGlu-γGlu-C20 diacid])D[αMeF]VQ[Aib]IANT-NH2): in test [1], the EC50 is 0.0865 nM and the “% Relative Potency Ratio” value worked out at 3.4. Further, the half-maximal effective concentration (EC50) in test [2] worked out at 0.15 nM.

On to `CC[C@H](C)[C@H](NC(=O)C(C)(C)NC(=O)[C@H](CCC(N)=O)NC(=O)[C@@H](NC(=O)[C@](C)(Cc1ccccc1)NC(=O)[C@H](CC(=O)O)NC(=O)[C@H](CCCCNC(=O)COCCOCCNC(=O)COCCOCCNC(=O)CC[C@H](NC(=O)CCCCCCCCCCCCCCCCCCC(=O)O)C(=O)O)NC(=O)[C@H](C)NC(=O)[C@H](C)NC(=O)[C@H](CCCNC(=N)N)NC(=O)[C@H](CO)NC(=O)[C@H](CC(=O)O)NC(=O)[C@H](CC(C)C)NC(=O)[C@](C)(Cc1ccccc1)NC(=O)[C@H](CCCCN)NC(=O)[C@H](CO)NC(=O)[C@@H](NC(=O)[C@H](CC(=O)O)NC(=O)[C@H](CO)NC(=O)[C@@H](NC(=O)[C@](C)(Cc1ccccc1)NC(=O)[C@H](CO)NC(=O)CNC(=O)[C@H](Cc1c[nH]cn1)NC(=O)C(C)(C)NC(=O)[C@@H](N)Cc1c[nH]cn1)[C@@H](C)O)C(C)C)C(C)C)C(=O)N[C@@H](C)C(=O)N[C@@H](CC(N)=O)C(=O)N[C@H](C(N)=O)[C@@H](C)O` [Peptide 280] (H-H[Aib]HGS[αMeF]TSDVSK[αMeF]LDSRAAK([AEEA-AEEA-γGlu-C20 diacid])D[αMeF]VQ[Aib]IANT-NH2), for which, in test [1], the EC50 worked out at 0.0783 nM and the “% Relative Potency Ratio” value came to 3.9. Further, the EC50 in test [2] was 0.155 nM.

As for `CC[C@H](C)[C@H](NC(=O)C(C)(C)NC(=O)[C@H](CCC(N)=O)NC(=O)[C@@H](NC(=O)[C@](C)(Cc1ccccc1)NC(=O)[C@H](CC(=O)O)NC(=O)[C@H](CCCCNC(=O)COCCOCCNC(=O)COCCOCCNC(=O)CC[C@H](NC(=O)CC[C@H](NC(=O)CCCCCCCCCCCCCCCCCCC(=O)O)C(=O)O)C(=O)O)NC(=O)[C@H](C)NC(=O)[C@H](C)NC(=O)[C@H](CCCNC(=N)N)NC(=O)[C@H](CO)NC(=O)[C@H](CC(=O)O)NC(=O)[C@H](CC(C)C)NC(=O)[C@](C)(Cc1ccccc1)NC(=O)[C@H](CCCCN)NC(=O)[C@H](CO)NC(=O)[C@@H](NC(=O)[C@H](CC(=O)O)NC(=O)[C@H](CO)NC(=O)[C@@H](NC(=O)[C@](C)(Cc1ccccc1)NC(=O)[C@H](CO)NC(=O)CNC(=O)[C@H](Cc1c[nH]cn1)NC(=O)[C@H](CO)NC(=O)[C@@H](N)Cc1c[nH]cn1)[C@@H](C)O)C(C)C)C(C)C)C(=O)N[C@@H](C)C(=O)N[C@@H](CC(N)=O)C(=O)N[C@H](C(N)=O)[C@@H](C)O` [Peptide 281] (H-HSHGS[αMeF]TSDVSK[αMeF]LDSRAAK([AEEA-AEEA-γGlu-γGlu-C20 diacid])D[αMeF]VQ[Aib]IANT-NH2), the values for the EC50 in test [1] and in test [2] were 0.155 nM and 1.04 nM, respectively. In test [1], the “% Relative Potency Ratio” value turned out to be 13.3.

Regarding `CC[C@H](C)[C@H](NC(=O)C(C)(C)NC(=O)[C@H](CCC(N)=O)NC(=O)[C@@H](NC(=O)[C@](C)(Cc1ccccc1)NC(=O)[C@H](CC(=O)O)NC(=O)[C@H](CCCCNC(=O)COCCOCCNC(=O)COCCOCCNC(=O)CC[C@H](NC(=O)CCCCCCCCCCCCCCCCC(=O)O)C(=O)O)NC(=O)[C@H](C)NC(=O)[C@H](C)NC(=O)[C@H](CCCNC(=N)N)NC(=O)[C@H](CO)NC(=O)[C@H](CC(=O)O)NC(=O)[C@H](CC(C)C)NC(=O)[C@](C)(Cc1ccccc1)NC(=O)[C@H](CCCCN)NC(=O)[C@H](CO)NC(=O)[C@@H](NC(=O)[C@H](CC(=O)O)NC(=O)[C@H](CO)NC(=O)[C@@H](NC(=O)[C@](C)(Cc1ccccc1)NC(=O)[C@H](CO)NC(=O)CNC(=O)[C@H](Cc1c[nH]cn1)NC(=O)[C@H](CO)NC(=O)[C@@H](N)Cc1c[nH]cn1)[C@@H](C)O)C(C)C)C(C)C)C(=O)N[C@@H](C)C(=O)N[C@@H](CC(N)=O)C(=O)N[C@H](C(N)=O)[C@@H](C)O` [Peptide 284] (H-HSHGS[αMeF]TSDVSK[αMeF]LDSRAAK([AEEA-AEEA-γGlu-C18 diacid])D[αMeF]VQ[Aib]IANT-NH2), in test [1], the concentration for a half-maximal effect (EC50) is 0.0434 nM and the “% Relative Potency Ratio” value was 5.4. Also, the EC50 in test [2] was found to be 0.119 nM.

`CC[C@H](C)[C@H](NC(=O)C(C)(C)NC(=O)[C@H](CCC(N)=O)NC(=O)[C@@H](NC(=O)[C@](C)(Cc1ccccc1)NC(=O)[C@H](CC(=O)O)NC(=O)[C@H](CCCCNC(=O)COCCOCCNC(=O)COCCOCCNC(=O)CC[C@H](NC(=O)CCCCCCCCCCCCCCCCC(=O)O)C(=O)O)NC(=O)[C@H](C)NC(=O)[C@H](C)NC(=O)[C@H](CCCNC(=N)N)NC(=O)[C@H](CO)NC(=O)[C@H](CC(=O)O)NC(=O)[C@H](CC(C)C)NC(=O)[C@](C)(Cc1ccccc1)NC(=O)[C@H](CCCCN)NC(=O)[C@H](CO)NC(=O)[C@@H](NC(=O)[C@H](CC(=O)O)NC(=O)[C@H](CO)NC(=O)[C@@H](NC(=O)[C@H](Cc1ccccc1)NC(=O)[C@H](CO)NC(=O)CNC(=O)[C@H](Cc1c[nH]cn1)NC(=O)C(C)(C)NC(=O)[C@@H](N)Cc1c[nH]cn1)[C@@H](C)O)C(C)C)C(C)C)C(=O)N[C@@H](C)C(=O)N[C@@H](CC(N)=O)C(=O)N[C@H](C(N)=O)[C@@H](C)O` [Peptide 285] (H-H[Aib]HGSFTSDVSK[αMeF]LDSRAAK([AEEA-AEEA-γGlu-C18 diacid])D[αMeF]VQ[Aib]IANT-NH2): the results for the half-maximal effective concentration (EC50) in test [1] and in test [2] were 0.301 nM and 0.087 nM, respectively. Moreover, in test [1], the “% Relative Potency Ratio” value was found to be 0.6.

Take `CC[C@H](C)[C@H](NC(=O)C(C)(C)NC(=O)[C@H](CCC(N)=O)NC(=O)[C@@H](NC(=O)[C@](C)(Cc1ccccc1)NC(=O)[C@H](CC(=O)O)NC(=O)[C@H](CCCCNC(=O)COCCOCCNC(=O)COCCOCCNC(=O)CC[C@H](NC(=O)CCCCCCCCCCCCCCCCC(=O)O)C(=O)O)NC(=O)[C@H](C)NC(=O)[C@H](C)NC(=O)[C@H](CCCNC(=N)N)NC(=O)[C@H](CO)NC(=O)[C@H](CC(=O)O)NC(=O)[C@H](CC(C)C)NC(=O)[C@H](Cc1ccc(O)cc1)NC(=O)[C@H](CCCCN)NC(=O)[C@H](CO)NC(=O)[C@@H](NC(=O)[C@H](CC(=O)O)NC(=O)[C@H](CO)NC(=O)[C@@H](NC(=O)[C@](C)(Cc1ccccc1)NC(=O)[C@H](CO)NC(=O)CNC(=O)[C@H](Cc1c[nH]cn1)NC(=O)C(C)(C)NC(=O)[C@@H](N)Cc1c[nH]cn1)[C@@H](C)O)C(C)C)C(C)C)C(=O)N[C@@H](C)C(=O)N[C@@H](CC(N)=O)C(=O)N[C@H](C(N)=O)[C@@H](C)O` [Peptide 286] (H-H[Aib]HGS[αMeF]TSDVSKYLDSRAAK([AEEA-AEEA-γGlu-C18 diacid])D[αMeF]VQ[Aib]IANT-NH2; N-terminus assumed): in test [1], the concentration for a half-maximal effect (EC50) worked out at 0.0316 nM and the “% Relative Potency Ratio” value was 3.3. In test [2], the EC50 worked out at 0.053 nM.
